Test results as given in ChEMBL document CHEMBL1201862, “PubChem BioAssay data set” (2004).
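Step 1: Grow cells in 96-well plates. Step 2: Expose to compound for 48 hours at 5 concentrations. Step 3: Interpolate endpoints linearly; if unreached, use highest concentration. GI50 marks 50% less growth.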 The source made the active and inactive calls. No stated cut-off is given here; in the data, active = GI50 up to about 1.1 µM and inactive = higher.

Key:
Experiment in all cases: DTP human tumour cell line panel, 48 h
[1] = test system: LOX IMVI
[2] = test system: SK-MEL-28
[3] = test system: OVCAR-4
[4] = test system: UACC-62
[5] = test system: SK-MEL-5
[6] = test system: A549
[7] = test system: ACHN
[8] = test system: SF-295
[9] = test system: U-251
[10] = test system: RPMI-8226
[11] = test system: SF-539
[12] = test system: M14
[13] = test system: SK-MEL-2
[14] = test system: NCI/ADR-RES
[15] = test system: K562
[16] = test system: 786-0
[17] = test system: SNB-19
[18] = test system: UO-31
[19] = test system: SK-OV-3
[20] = test system: SR
[21] = test system: HCT-15
[22] = test system: KM12
[23] = test system: RXF 393
[24] = test system: BT-549
[25] = test system: SNB-75
[26] = test system: SW-620
[27] = test system: MDA-MB-231
[28] = test system: NCI-H522
[29] = test system: HCT-116
[30] = test system: HCC 2998
[31] = test system: MDA-N
[32] = test system: NCI-H460
[33] = test system: HOP-62
[34] = test system: OVCAR-8
[35] = test system: SF-268
[36] = test system: DU-145
[37] = test system: NCI-H226
[38] = test system: OVCAR-3
[39] = test system: T47D
[40] = test system: CAKI-1
[41] = test system: UACC-257
[42] = test system: TK-10
[43] = test system: MOLT-4
[44] = test system: HOP-92
[45] = test system: COLO 205
[46] = test system: A498
[47] = test system: SN12C
[48] = test system: Hs-578T
[49] = test system: HT-29
[50] = test system: NCI-H23
[51] = test system: HL-60
[52] = test system: PC-3
[53] = test system: OVCAR-5
[54] = test system: Malme-3M
[55] = test system: EKVX
[56] = test system: CCRF-CEM
[57] = test system: MCF7
[58] = test system: MDA-MB-435

Question: Which results are given for O=C(Nc1nc2ccccc2s1)c1cc([N+](=O)[O-])ccc1Cl?
Answer: GI50 [1]: 3.44 µM (inactive); GI50 [2]: > 32.1 µM (inactive); GI50 [3]: 8.39 µM (inactive); GI50 [4]: 7.5 µM (inactive); GI50 [5]: 7.6 µM (inactive); GI50 [6]: 6.17 µM (inactive); GI50 [7]: 17 µM (inactive); GI50 [8]: 22.3 µM (inactive); GI50 [9]: 6.43 µM (inactive); GI50 [10]: 4.81 µM (inactive); GI50 [11]: 4.73 µM (inactive); GI50 [12]: 8.97 µM (inactive); GI50 [13]: 13.2 µM (inactive); GI50 [14]: 6.89 µM (inactive); GI50 [15]: 3.86 µM (inactive); GI50 [16]: 11.1 µM (inactive); GI50 [17]: 28.4 µM (inactive); GI50 [18]: 6.76 µM (inactive); GI50 [19]: 16 µM (inactive); GI50 [20]: 1.54 µM (inactive); GI50 [21]: 4.63 µM; GI50 [22]: 3.29 µM (inactive); GI50 [23]: 2.65 µM (inactive); GI50 [24]: 5.92 µM (inactive); GI50 [25]: 13.8 µM (inactive); GI50 [26]: 6.14 µM (inactive); GI50 [27]: > 55.1 µM (inactive); GI50 [28]: 3.4 µM (inactive); GI50 [29]: 3.87 µM (inactive); GI50 [30]: 12.6 µM (inactive); GI50 [31]: 3.58 µM (inactive); GI50 [32]: 1.91 µM (inactive); GI50 [33]: 13.6 µM (inactive); GI50 [34]: 5 µM (inactive); GI50 [35]: 4.45 µM (inactive); GI50 [36]: 6.84 µM (inactive); GI50 [37]: 16.9 µM (inactive); GI50 [38]: 16.7 µM (inactive); GI50 [39]: 13.9 µM (inactive); GI50 [40]: 37.6 µM (inactive); GI50 [41]: 42.2 µM (inactive); GI50 [42]: 66.4 µM (inactive); GI50 [43]: 2.81 µM (inactive); GI50 [44]: 5.89 µM (inactive); GI50 [45]: 19.6 µM (inactive); GI50 [46]: > 81.7 µM (inactive); GI50 [47]: 9.59 µM (inactive); GI50 [48]: 2.88 µM (inactive); GI50 [49]: 5.47 µM (inactive); GI50 [50]: 4.91 µM (inactive); GI50 [51]: 1.78 µM (inactive); GI50 [52]: 7.24 µM (inactive); GI50 [53]: 23 µM (inactive); GI50 [54]: 23.7 µM (inactive); GI50 [55]: 10.1 µM (inactive); GI50 [56]: 0.0107 µM (active); GI50 [57]: 0.91 µM (active); GI50 [58]: 3.13 µM (inactive)
